Source: US5998442A, “Benzo [B] thiophene compounds, and compositions for treating bone loss, and hyperlipidemia” (Eli Lilly and Company, priority 1997, dated 1999)
pIC50: −log10 of the molar value.

Tests used:
[1] = tested on: Proximal Tibiae, ovariectomized rats; assay: Osteoporosis Test Procedure: proximal tibiae quantitative computed tomography; format: in vivo, rat; settings: 35 days
Protocol: (§1) Following the General Preparation Procedure, infra, the rats were treated daily for 35 days (6 rats per treatment group) and sacrificed by carbon dioxide asphyxiation on the 36th day. The 35 day time period was sufficient to allow maximal reduction in bone density, measured as described herein. At the time of sacrifice, the uteri were removed, dissected free of extraneous tissue, and the fluid contents were expelled before determination of wet weight in order to confirm estrogen deficiency associated with complete ovariectomy. […] The uteri were then placed in 10% neutral buffered formalin to allow for subsequent histological analysis. The right femurs were excised and digitilized x-rays generated and analyzed by an image analysis program (NIH image) at the distal metaphysis. The proximal aspect of the tibiae from these animals were also scanned by quantitative computed tomography. […] Distal femur metaphysis and proximal tibiae data presented in Tables 2 and 3 below, respectively are the results of formula I compound treatments compared to intact and ovariectomized test animals. Results are reported as percent protection relative to ovariectomy.

[2] = tested on: Distal Femur Metaphysis, ovariectomized rats; assay: Osteoporosis Test Procedure: distal femur metaphysis X-ray image analysis; format: in vivo, rat; settings: oral, 35 days; dose not given
Protocol: as §1

[3] = tested on: serum cholesterol, ovariectomized rats; assay: Serum cholesterol in ovariectomized rats (4 days daily oral dosing); format: in vivo, rat (female Sprague Dawley)
Protocol: (§2) In the examples illustrating the methods, a postmenopausal model was used in which effects of different treatments upon circulating lipids were determined.
(§3) Seventy-five day old female Sprague Dawley rats (weight range of 200 to 225 g) were obtained from Charles River Laboratories (Portage, Mich.). The animals were either bilaterally ovariectomized (OVX) or exposed to a Sham surgical procedure at Charles River Laboratories, and then shipped after one week. Upon arrival, they were housed in metal hanging cages in groups of 3 or 4 per cage and had ad libitum access to food (calcium content approximately 0.5%) and water for one week. Room temperature was maintained at 22.2°±1.70° C. with a minimum relative humidity of 40%. The photoperiod in the room was 12 hours light and 12 hours dark.
(§4) After a one week acclimation period (therefore, two weeks post-OVX) daily dosing with test compound was initiated. […] Animals were dosed daily for 4 days. Following the dosing regimen, animals were weighed and anesthetized with a ketamine: Xylazine (2:1, V:V) mixture and a blood sample was collected by cardiac puncture. The animals were then sacrificed by asphyxiation with CO2, the uterus was removed through a midline incision, and a wet uterine weight was determined.
Blood samples were allowed to clot at room temperature for 2 hours, and serum was obtained following centrifugation for 10 minutes at 3000 rpm. Serum cholesterol was determined using a Boehringer Mannheim Diagnostics high performance cholesterol assay. Briefly the cholesterol was oxidized to cholest-4-en-3-one and hydrogen peroxide. The hydrogen peroxide was then reacted with phenol and 4-aminophenazone in the presence of peroxidase to produce a p-quinone imine dye, which was read spectrophotemetrically at 500 nm. Cholesterol concentration was then calculated against a standard curve. The entire assay was automated using a Biomek Automated Workstation. […]
(§5) The data presented in Table 1 below reflects the response of 5 to 6 rats per treatment.

[4] = tested on: bone, ovariectomized rats; assay: Osteoporosis Test Procedure: bone loss in ovariectomized rats (summary); format: in vivo, rat; settings: orally administered
Protocol: as §1

[5] = tested on: uterus, ovariectomized rats; assay: Uterine weight in ovariectomized rats (4 days daily oral dosing); format: in vivo, rat (female Sprague Dawley)
Protocol: as §2, §3, §4
This uterine response to estrogen is well recognized in the art.
as §5

[6] = tested on: Uterine Eosinophil Peroxidase (EPO); assay: Uterine Eosinophil Peroxidase (EPO) Assay in ovariectomized rats; format: in vivo, rat (female Sprague Dawley); design: Uterine EPO (Vmax): unit not given here
Text: as §3, §4
Uteri were kept at 4° C. until time of enzymatic analysis. The uteri were then homogenized in 50 volumes of 50 mM Tris buffer (pH-8.0) containing 0.005% Triton X-100. Upon addition of 0.01% hydrogen peroxide and 10 mM O-phenylenediamine (final concentrations) in Tris buffer, increase in absorbance was monitored for one minute at 450 nm. The presence of eosonophils in the uterus is an indication of estrogenic activity of a compound. The maximal velocity of a 15 second interval was determined over the initial, linear portion of the reaction curve.
As is expressed in the data below, estrogenicity also was assessed by evaluating the adverse response of eosinophil infiltration into the uterus.
as §5

[7] = tested on: MCF-7 breast adenocarcinoma cells; assay: MCF-7 Proliferation Assay (tritiated thymidine); format: cell-based; settings: Homo sapiens, MCF7, 48 hours, read-out: IC50
Protocol: MCF-7 breast adenocarcinoma cells (ATCC HTB 22) were maintained in MEM (minimal essential medium, phenol red-free, Sigma, St. Louis, Mo.) supplimented with 10% fetal bovine serum (FBS) (V/V), L-glutamine (2 mM), sodium pyruvate (1 mM), HEPES {(N-[2-hydroxyethyl]piperazine-N'-[2-ethanesulfonic acid]10 mM}, non-essential amino acids and bovine insulin (1 ug/mL) (maintenance medium). Ten days prior to assay, MCF-7 cells were switched to maintenance medium supplemented with 10% dextran coated charcoal stripped fetal bovine serum (DCC-FBS) assay medium) in place of 10% FBS to deplete internal stores of steroids. MCF-7 cells were removed from maintenance flasks using cell dissociation medium (Ca++/Mg++ free HBSS (phenol red-free) supplemented with 10 mM HEPES and 2 mM EDTA). Cells were washed twice with assay medium and adjusted to 80,000 cells/mL. Approximately […] (8,000 cells) were added to flat-bottom microculture wells (Costar 3596) and incubated at 37° C. in a 5% CO2 humidified incubator for 48 hours to allow for cell adherence and equilibration after transfer. Serial dilutions of drugs or DMSO as a diluent control were prepared in assay medium and […] to triplicate microcultures followed by […] assay medium for a final volume of […]. After an additional 48 hours at 37° C. in a 5% CO2 humidified incubator, microcultures were pulsed with tritiated thymidine (1 uCi/well) for 4 hours. Cultures were terminated by freezing at -70° C. for 24 hours followed by thawing and harvesting of microcultures using a Skatron Semiautomatic Cell Harvester. Samples were counted by liquid scintillation using a Wallac BetaPlace b counter. Results in Table 4 below show the IC50 for certain compounds of the instant invention. […]

[8] = orally administered at 0.1 mg/kg/day

Row | pIC50 [7] | Compound | Proximal Tibiae Total Bone Mineral Density (Quantitative Computed Tomography), percent protection relative to ovariectomy ([1]; 0.1 mg/kg oral) [%] | Distal Femur Metaphysis (X-ray Image Analysis-Gray Score), percent protection relative to ovariectomy [2] [%] | serum cholesterol (in words) [3, 8] | prevention of bone loss (in words) [4] | uterine weight (in words) [5, 8] | Proximal Tibiae Total Bone Mineral Density (Quantitative Computed Tomography), percent protection relative to ovariectomy ([1]; 1.0 mg/kg oral) [%] | Proximal Tibiae Total Bone Mineral Density (Quantitative Computed Tomography), percent protection relative to ovariectomy ([1]; 10.0 mg/kg oral) [%] | inhibition in vivo at 0.1 mg/kg ([3]; Rattus norvegicus, 96 h, 0.1 mg/kg PO, read-out: Serum Cholesterol (% decrease vs. OVX)) [%] | inhibition in vivo at 1 mg/kg ([3]; Rattus norvegicus, 96 h, 1.0 mg/kg PO, read-out: Serum Cholesterol (% decrease vs. OVX)) [%] | inhibition in vivo at 10 mg/kg ([3]; Rattus norvegicus, 96 h, 10.0 mg/kg PO, read-out: Serum Cholesterol (% decrease vs. OVX)) [%] | Uterine EPO (Vmax) ([6]; 0.1 mg/kg PO) | Uterine EPO (Vmax) ([6]; 1.0 mg/kg PO) | Uterine EPO (Vmax) ([6]; 10.0 mg/kg PO) | change in vivo at 0.1 mg/kg ([5]; Rattus norvegicus, 96 h, 0.1 mg/kg PO, read-out: Uterine weight (% increase vs. OVX)) [%] | change in vivo at 1 mg/kg ([5]; Rattus norvegicus, 96 h, 1.0 mg/kg PO, read-out: Uterine weight (% increase vs. OVX)) [%] | change in vivo at 10 mg/kg ([5]; Rattus norvegicus, 96 h, 10.0 mg/kg PO, read-out: Uterine weight (% increase vs. OVX)) [%]
1 |  | C#C[C@]1(O)CC[C@H]2[C@@H]3CCc4cc(O)ccc4[C@H]3CC[C@@]21C [EE2, 17a-ethynyl estradiol, reference compound] | 59.4 | 80.7 | caused a decrease in serum cholesterol | prevented this loss | substantially greater than the uterine weight of ovariectomized test animals |  |  |  |  |  |  |  |  |  |  | 
2 | 8.49 | O=C(c1ccc(OCCN2CCCCC2)cc1)c1c(-c2cccc(O)c2)sc2cc(O)ccc12 [Example 12, [2-(3-Hydroxyphenyl)-6-hydroxybenzo[b]thien-3-yl][4-[2-(1-piperidinyl)ethoxy]phenyl]methanone] | -30.9 |  |  |  |  | 51.5 | 79.7 | 24.3 | 52.3 | 49.1 | 2.0 | 2.6 | 2.4 | 15.5 | 22.7 | 16.7
